Results reported in ChEMBL document CHEMBL3826930, “Antitumor activities of biscoumarin and dihydropyran derivatives” (Bioorg Med Chem Lett, 2016).
Values after ≈ are worked out from the molar mass of the structure shown.

How the values were obtained:
[1] = Antiproliferative activity against human HuTu 80 cells after 48 hrs by MTT assay; assay type: functional, cell-based; settings: HuTu80, 48 h
[2] = system: 4T1; assay: Antiproliferative activity against mouse 4T1 cells after 48 hrs by MTT assay; assay type: functional, cell-based; settings: 4T1, 48 h
[3] = Antiproliferative activity against human PANC1 cells after 48 hrs by MTT assay; assay type: functional, cell-based; settings: PANC-1, 48 h
[4] = system: Mus musculus; assay: Acute toxicity in Kunming mouse assessed as physical/abnormal changes in skin at 500 mg/kg, administered as single dose after 14 days; assay type: organism-based; settings: in vivo, 336 h
[5] = system: HuTu80; assay: Induction of apoptosis in human HuTu 80 cells assessed as live cells at 3 ug/ml after 48 hrs by Annexin V/propidium iodide staining based flow cytometry (reference value: 92.5%); assay type: functional
[6] = Cell cycle arrest in human HuTu 80 cells assessed as accumulation at G1 phase at 3 ug/ml after 48 hrs by propidium iodide staining based flow cytometry (reference value: 43.3 to 43.32%); assay type: functional; settings: HuTu80
[7] = system: Mus musculus; assay: Acute toxicity in Kunming mouse assessed as tremor induction at 500 mg/kg, administered as single dose after 14 days; assay type: organism-based; settings: in vivo, 336 h
[8] = system: HEK293; assay: Selectivity index, ratio of IC50 for HEK293 cells to IC50 for human PANC1 cells; assay type: functional
[9] = Cell cycle arrest in human HuTu 80 cells assessed as accumulation at subG1 phase at 3 ug/ml after 48 hrs by propidium iodide staining based flow cytometry (reference value: 2.27 to 2.3%); assay type: functional; settings: HuTu80
[10] = system: Mus musculus; assay: Acute toxicity in Kunming mouse assessed as physical/abnormal changes in eyes at 500 mg/kg, administered as single dose after 14 days; assay type: organism-based; settings: in vivo, 336 h
[11] = system: HEK293; assay: Selectivity index, ratio of IC50 for HEK293 cells to IC50 for mouse 4T1 cells; assay type: functional
[12] = system: HuTu80; assay: Induction of apoptosis in human HuTu 80 cells assessed as necrotic cells at 3 ug/ml after 48 hrs by Annexin V/propidium iodide staining based flow cytometry (reference value: 5.3%); assay type: functional
[13] = system: Mus musculus; assay: Acute toxicity in Kunming mouse assessed as survival at 500 mg/kg, administered as single dose measured on day 14 post dose; assay type: organism-based; settings: in vivo
[14] = system: Mus musculus; assay: Acute toxicity in Kunming mouse assessed as behavior pattern abnormality at 500 mg/kg, administered as single dose after 14 days; assay type: organism-based; settings: in vivo, 336 h
[15] = Cell cycle arrest in human HuTu 80 cells assessed as accumulation at S phase at 3 ug/ml after 48 hrs by propidium iodide staining based flow cytometry (reference value: 15.79 to 15.8%); assay type: functional; settings: HuTu80
[16] = system: Mus musculus; assay: Acute toxicity in Kunming mouse assessed as structural abnormality in liver at 500 mg/kg, administered as single dose after 14 days by hematoxylin and eosin staining based histological analysis; assay type: organism-based; settings: in vivo, 336 h
[17] = system: 4T1; assay: Selectivity index, ratio of IC50 for HUVEC to IC50 for mouse 4T1 cells
[18] = Cell cycle arrest in human HuTu 80 cells assessed as accumulation at G2/M phase at 3 ug/ml after 48 hrs by propidium iodide staining based flow cytometry (reference value: 23.2%); assay type: functional; settings: HuTu80
[19] = system: Mus musculus; assay: Acute toxicity in Kunming mouse assessed as sleep pattern abnormality at 500 mg/kg, administered as single dose after 14 days; assay type: organism-based; settings: in vivo, 336 h
[20] = system: PANC-1; assay: Selectivity index, ratio of IC50 for HUVEC to IC50 for human PANC1 cells
[21] = system: Mus musculus; assay: Acute toxicity in Kunming mouse assessed as physical/abnormal changes in mucus membrane at 500 mg/kg, administered as single dose after 14 days; assay type: organism-based; settings: in vivo, 336 h
[22] = system: Mus musculus; assay: Acute toxicity in Kunming mouse assessed as structural abnormality in kidney at 500 mg/kg, administered as single dose after 14 days by hematoxylin and eosin staining based histological analysis; assay type: organism-based; settings: in vivo, 336 h
[23] = system: HEK293; assay: (§1) Cytotoxicity against HEK293 cells assessed as reduction in cell survival after 48 hrs by MTT assay; assay type: cell-based, Homo sapiens; settings: Homo sapiens, HEK293, 48 h
[24] = as §1; assay type: cell-based, Homo sapiens; settings: human, HEK293 cells
[25] = system: Mus musculus; assay: Acute toxicity in Kunming mouse assessed as induction of salivation at 500 mg/kg, administered as single dose after 14 days; assay type: organism-based; settings: in vivo, 336 h
[26] = (§2) Cytotoxicity against HUVEC assessed as reduction in cell survival after 48 hrs by MTT assay; assay type: cell-based, Homo sapiens; settings: human, HUVEC cells
[27] = system: HUVEC; assay: as §2; assay type: cell-based, Homo sapiens; settings: Homo sapiens, HUVEC, 48 h
[28] = system: HuTu80; assay: Selectivity index, ratio of IC50 for HUVEC to IC50 for human HuTu 80 cells
[29] = system: HEK293; assay: Selectivity index, ratio of IC50 for HEK293 cells to IC50 for human HuTu 80 cells; assay type: functional
[30] = system: Mus musculus; assay: Acute toxicity in Kunming mouse assessed as physical/abnormal changes in fur at 500 mg/kg, administered as single dose after 14 days; assay type: organism-based; settings: in vivo, 336 h
[31] = system: HuTu80; assay: Induction of apoptosis in human HuTu 80 cells assessed as early apoptotic cells at 3 ug/ml after 48 hrs by Annexin V/propidium iodide staining based flow cytometry (reference value: 0.5%); assay type: functional
[32] = system: HuTu80; assay: Induction of apoptosis in human HuTu 80 cells assessed as late apoptotic cells at 3 ug/ml after 48 hrs by Annexin V/propidium iodide staining based flow cytometry (reference value: 1.6%); assay type: functional

N#CC1=C(N)OC2=C(C(=O)CC2)C1c1ccc(Cl)cc1Cl (configuration not stated)
IC50 [1]: 150 µg/mL (≈ 466 µM) | IC90 [1]: 302 µg/mL (≈ 941 µM) | IC50 [2]: 127 µg/mL (≈ 396 µM) | IC90 [2]: 307 µg/mL (≈ 955 µM) | IC50 [3]: 156 µg/mL (≈ 486 µM) | IC90 [3]: 325 µg/mL (≈ 1010 µM)

CC1(C)CC(=O)C2=C(C1)OC(N)=C(C#N)C2c1ccc(S(C)(=O)=O)cc1 (configuration not stated)
IC50 [1]: > 300 µg/mL | IC90 [1]: > 500 µg/mL | IC50 [2]: > 300 µg/mL | IC90 [2]: > 500 µg/mL | IC50 [3]: > 300 µg/mL | IC90 [3]: > 500 µg/mL

O=c1oc2ccccc2c(O)c1C(c1ccc(F)c(F)c1)c1c(O)c2ccccc2oc1=O
Activity [4]: Non-toxic | Activity [5]: 88% | Activity [6]: 26.1% | Activity [7]: Non-toxic | Ratio IC50 [8]: 1.3 | Activity [9]: 25.1% | Activity [10]: Non-toxic | Ratio IC50 [11]: 2.2 | Activity [12]: 7.5% | Activity [13]: Non-toxic | Activity [14]: Non-toxic | Activity [15]: 18.5% | Activity [16]: Non-toxic | Ratio IC50 [17]: 2.3 | Activity [18]: 15.3% | IC50 [1]: 15 µg/mL (≈ 33.5 µM) | IC90 [1]: 28 µg/mL (≈ 62.4 µM) | Activity [19]: Non-toxic | Ratio IC50 [20]: 1.36 | Activity [21]: Non-toxic | Activity [22]: Non-toxic | IC50 [2]: 47.9 µg/mL (≈ 107 µM) | IC90 [2]: 98.4 µg/mL (≈ 219 µM) | IC50 [23]: 107 µg/mL (≈ 239 µM) | IC90 at 48 h [24]: 221 µg/mL (≈ 492 µM) | Activity [25]: Non-toxic | IC90 at 48 h [26]: 276 µg/mL (≈ 616 µM) | IC50 [27]: 112 µg/mL (≈ 251 µM) | Ratio IC50 [28]: 7.5 | Ratio IC50 [29]: 7.1 | IC50 [3]: 82.4 µg/mL (≈ 184 µM) | IC90 [3]: 155 µg/mL (≈ 346 µM) | Activity [30]: Non-toxic | Activity [31]: 1.2% | Activity [32]: 3.2%

COc1cc(C2C(C#N)=C(N)OC3=C2C(=O)CC3)cc(OC)c1OC (configuration not stated)
IC50 [1]: 185 µg/mL (≈ 541 µM) | IC90 [1]: 360 µg/mL (≈ 1050 µM) | IC50 [2]: 153 µg/mL (≈ 448 µM) | IC90 [2]: 365 µg/mL (≈ 1070 µM) | IC50 [3]: 200 µg/mL (≈ 583 µM) | IC90 [3]: 391 µg/mL (≈ 1140 µM)

N#CC1=C(N)Oc2c(c(=O)oc3ccccc23)C1c1ccc([N+](=O)[O-])cc1 (configuration not stated)
IC50 [1]: 97 µg/mL (≈ 268 µM) | IC90 [1]: 187 µg/mL (≈ 518 µM) | IC50 [2]: 142 µg/mL (≈ 394 µM) | IC90 [2]: 289 µg/mL (≈ 801 µM) | IC50 [3]: 218 µg/mL (≈ 604 µM) | IC90 [3]: 348 µg/mL (≈ 963 µM)

CC(C)c1ccc(C2C(C#N)=C(N)Oc3c2c(=O)oc2ccccc32)cc1 (configuration not stated)
IC50 [1]: 238 µg/mL (≈ 664 µM) | IC90 [1]: > 500 µg/mL | IC50 [2]: > 300 µg/mL | IC90 [2]: > 500 µg/mL | IC50 [3]: 256 µg/mL (≈ 715 µM) | IC90 [3]: > 500 µg/mL

CC1(C)CC(=O)C2=C(C1)OC(N)=C(C#N)C2c1cc(C(F)(F)F)cc(C(F)(F)F)c1 (configuration not stated)
IC50 [1]: > 300 µg/mL | IC90 [1]: > 500 µg/mL | IC50 [2]: > 300 µg/mL | IC90 [2]: > 500 µg/mL | IC50 [3]: > 300 µg/mL | IC90 [3]: > 500 µg/mL

N#CC1=C(N)OC2=C(C(=O)CC2)C1c1cccc(C#N)c1 (configuration not stated)
IC50 [1]: 191 µg/mL (≈ 690 µM) | IC90 [1]: 381 µg/mL (≈ 1370 µM) | IC50 [2]: 125 µg/mL (≈ 452 µM) | IC90 [2]: 299 µg/mL (≈ 1080 µM) | IC50 [3]: 143 µg/mL (≈ 515 µM) | IC90 [3]: 317 µg/mL (≈ 1140 µM)
